Results on 1 compound are retold here after article PMC6151709, “Immobilization of Moniliella spathulata R25L270 Lipase on Ionic, Hydrophobic and Covalent Supports: Functional Properties and Hydrolysis of Sardine Oil” (Molecules : A Journal of Synthetic Chemistry and Natural …, 2017).

This assay relates to T1, M. spathulata R25L270 lipase.
T1 construct: native secreted enzyme; crude culture supernatant (Macauba cake medium), not purified here; free enzyme
Kind of assay: spectrophotometric release of p-nitrophenol at […] nm. The note with it: free enzyme, crude culture supernatant; pH 8.0, 37 °C; pNPP 0.1-1 mM; Triton X-100, gum arabic, 2-propanol in the substrate solution; read-out: Michaelis Constant KM. It is filed as biochemical, Moniliella spathulata.

Turning to `CCCCCCCCCCCCCCCC(=O)Oc1ccc([N+](=O)[O-])cc1` [p-nitrophenylpalmitate], the Km came to 1.92 mM.
